From PubChem BioAssay (NCI)
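96-well plates; 48 h exposure; 5 concentrations. Endpoints by linear interpolation between flanking doses. Not reached: highest tested concentration assigned. Abbreviation: GI50, concentration required for 50% inhibition of growth. Definition used: TGI = concentration required for complete inhibition of growth.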

Legend:
Test in all cases: NCI-60 cell line screen, 48 h; in the data active = GI50 below about 0.43 µM; inactive = the rest
[1] = test system: SK-MEL-2 melanoma
[2] = test system: CCRF-CEM leukemia
[3] = test system: MOLT-4 leukemia
[4] = test system: HOP-92 NSCLC
[5] = test system: UACC-257 melanoma
[6] = test system: RXF 393 renal
[7] = test system: SR leukemia
[8] = test system: NCI-H23 lung
[9] = test system: OVCAR-8 ovarian
[10] = test system: HCT-116 colon
[11] = test system: SK-OV-3 ovarian
[12] = test system: A549 NSCLC
[13] = test system: HL-60(TB) leukemia
[14] = test system: SNB-19 CNS
[15] = test system: MCF7 breast
[16] = test system: IGROV1 ovarian
[17] = test system: NCI/ADR-RES ovarian
[18] = test system: CAKI-1 renal
[19] = test system: SF-268 CNS
[20] = test system: HOP-62 NSCLC
[21] = test system: A498 renal
[22] = test system: HCC-2998 colon
[23] = test system: 786-0 renal
[24] = test system: TK-10 renal
[25] = test system: MDA-MB-435
[26] = test system: SN12C renal
[27] = test system: OVCAR-3 ovarian
[28] = test system: EKVX NSCLC
[29] = test system: M14 melanoma
[30] = test system: NCI-H460 lung
[31] = test system: HT29 colon
[32] = test system: U251 CNS
[33] = test system: UACC-62 melanoma
[34] = test system: MDA-MB-231 breast
[35] = test system: MALME-3M melanoma
[36] = test system: SF-539 CNS
[37] = test system: HS 578T breast
[38] = test system: HCT-15 colon
[39] = test system: SF-295 CNS
[40] = test system: NCI-H226 lung
[41] = test system: PC-3 prostate
[42] = test system: T-47D breast
[43] = test system: RPMI-8226 leukemia
[44] = test system: ACHN renal
[45] = test system: SW-620 colon
[46] = test system: OVCAR-5 ovarian
[47] = test system: K-562 leukemia
[48] = test system: SK-MEL-5 melanoma
[49] = test system: KM12 colon
[50] = test system: BT-549 breast
[51] = test system: DU-145 prostate
[52] = test system: COLO 205 colon
[53] = test system: UO-31 renal
[54] = test system: LOX IMVI melanoma
[55] = test system: OVCAR-4 ovarian
[56] = test system: SK-MEL-28 melanoma
[57] = test system: NCI-H522 lung
[58] = test system: SNB-75 CNS

CC(C)(C(=O)NCC(F)(F)C(F)(F)F)C(=O)N[C@@H]1C(=O)Nc2ccccc2-c2ccccc21
inactive: GI50 [1] > 57.2 µM | GI50 [2] 45.3 µM | GI50 [3] 40.3 µM | GI50 [4] 39.2 µM | GI50 [5] 47.3 µM | GI50 [6] 20 µM | GI50 [7] 35.5 µM | GI50 [8] > 67 µM | GI50 [9] 55.6 µM | GI50 [10] 46.1 µM | GI50 [11] 99 µM | GI50 [12] 51.9 µM | GI50 [13] 37.5 µM | GI50 [14] 62.3 µM | GI50 [15] 27.3 µM | GI50 [16] > 71.6 µM | GI50 [17] 42.4 µM | GI50 [18] 45.4 µM | GI50 [19] 67.5 µM | GI50 [20] > 93.4 µM | GI50 [21] 50.3 µM | GI50 [22] 40.6 µM | GI50 [23] > 64.3 µM | GI50 [24] > 100 µM | GI50 [25] > 63.7 µM | GI50 [26] > 85 µM | GI50 [27] 68.8 µM | GI50 [28] 52.7 µM | GI50 [29] 38.8 µM | GI50 [30] 52.4 µM | GI50 [31] 39.7 µM | GI50 [32] > 78.5 µM | GI50 [33] 29.2 µM | GI50 [34] 44 µM | GI50 [35] > 61.9 µM | GI50 [36] > 84.8 µM | GI50 [37] > 56 µM | GI50 [38] 51.3 µM | GI50 [39] 43.7 µM | GI50 [40] 30.1 µM | GI50 [41] 50.8 µM | GI50 [42] 23.7 µM | GI50 [43] 54.5 µM | GI50 [44] 50.4 µM | GI50 [45] > 70.2 µM | GI50 [46] 97 µM | GI50 [47] > 67.3 µM | GI50 [48] 16 µM | GI50 [49] 73.3 µM | GI50 [50] 36.3 µM | GI50 [51] > 87.2 µM | GI50 [52] 34 µM | GI50 [53] 32.3 µM | GI50 [54] > 59.2 µM | GI50 [55] 34.1 µM | GI50 [56] 42 µM | GI50 [57] 65.1 µM | GI50 [58] 21.6 µM
37.5 µM: TGI [48]
> 78.7 µM: TGI [6]
> 100 µM: TGI [1] | TGI [2] | TGI [3] | TGI [4] | TGI [5] | TGI [8] | TGI [9] | TGI [10] | TGI [11] | TGI [12] | TGI [13] | TGI [14] | TGI [15] | TGI [16] | TGI [17] | TGI [18] | TGI [19] | TGI [20] | TGI [21] | TGI [22] | TGI [23] | TGI [24] | TGI [25] | TGI [26] | TGI [27] | TGI [28] | TGI [29] | TGI [30] | TGI [31] | TGI [32] | TGI [33] | TGI [34] | TGI [35] | TGI [36] | TGI [37] | TGI [38] | TGI [39] | TGI [40] | TGI [41] | TGI [43] | TGI [44] | TGI [45] | TGI [46] | TGI [47] | TGI [49] | TGI [50] | TGI [51] | TGI [52] | TGI [53] | TGI [54] | TGI [55] | TGI [56] | TGI [57] | TGI [58]
99 µM: TGI [7] | TGI [42]
